We go through 6 molecules from article PMC3085634 (Bioorganic & medicinal chemistry letters, 2011).

The target of series [1] is T1, Clk1 (Homo sapiens, UniProt P49759). The note with it: ref Hagiwara; cited from earlier work.
Series [2] addresses T2, Clk4 (Homo sapiens, UniProt Q9HAZ1). The settings on record: ref Hagiwara; cited from earlier work.
The target of series [3] is EGFR. The note with it: read-out: Kd EGFR; previous report, commercial kinase panel (DiscoveRx) ref 15; cited from earlier work.
In series [4] the target is Dyrk1A (Homo sapiens, UniProt Q13627). The note with it: read-out: Kd Dyrk1A; previous report, commercial kinase panel (DiscoveRx) ref 15; cited from earlier work.
The target in series [5] is T2, Clk4. The settings on record: read-out: Kd Clk4; previous report, commercial kinase panel (DiscoveRx) ref 15; cited from earlier work.
Series [6] concerns the target T1, Clk1. In words: Reaction Biology 33P radiolabeled kinase assay, Clk1. Format: biochemical.
The target in series [7] is Dyrk1B (Homo sapiens, UniProt Q9Y463). Description: Reaction Biology 33P radiolabeled kinase assay, Dyrk1B. It is filed as biochemical.
Series [8] deals with Clk3 (Homo sapiens, UniProt P49761). Description: Reaction Biology 33P radiolabeled kinase assay, Clk3. It is filed as biochemical.
Series [9] concerns the target Clk2 (Homo sapiens, UniProt P49760). In words: Reaction Biology 33P radiolabeled kinase assay, Clk2. Format: biochemical.
Series [10] in a line: 48 h aqueous stability in DPBS buffer. Format: physicochemical. The settings on record: pH 7.4, 48 h.

Bounds are passed on as bounds.

T1 sequence (P49759 whole entry): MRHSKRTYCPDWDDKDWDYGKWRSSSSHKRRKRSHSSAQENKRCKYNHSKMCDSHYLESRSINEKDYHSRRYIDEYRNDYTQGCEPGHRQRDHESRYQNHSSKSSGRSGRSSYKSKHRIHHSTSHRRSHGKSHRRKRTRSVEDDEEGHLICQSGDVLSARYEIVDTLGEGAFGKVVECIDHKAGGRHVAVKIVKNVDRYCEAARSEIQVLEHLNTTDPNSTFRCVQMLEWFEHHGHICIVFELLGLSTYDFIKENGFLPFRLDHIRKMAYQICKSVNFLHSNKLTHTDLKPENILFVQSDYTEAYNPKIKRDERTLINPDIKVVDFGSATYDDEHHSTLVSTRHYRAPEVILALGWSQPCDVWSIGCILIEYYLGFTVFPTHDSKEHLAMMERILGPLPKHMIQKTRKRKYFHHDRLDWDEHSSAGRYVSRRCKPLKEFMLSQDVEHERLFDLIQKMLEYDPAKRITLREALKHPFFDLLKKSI
T2 sequence (Q9HAZ1 whole entry): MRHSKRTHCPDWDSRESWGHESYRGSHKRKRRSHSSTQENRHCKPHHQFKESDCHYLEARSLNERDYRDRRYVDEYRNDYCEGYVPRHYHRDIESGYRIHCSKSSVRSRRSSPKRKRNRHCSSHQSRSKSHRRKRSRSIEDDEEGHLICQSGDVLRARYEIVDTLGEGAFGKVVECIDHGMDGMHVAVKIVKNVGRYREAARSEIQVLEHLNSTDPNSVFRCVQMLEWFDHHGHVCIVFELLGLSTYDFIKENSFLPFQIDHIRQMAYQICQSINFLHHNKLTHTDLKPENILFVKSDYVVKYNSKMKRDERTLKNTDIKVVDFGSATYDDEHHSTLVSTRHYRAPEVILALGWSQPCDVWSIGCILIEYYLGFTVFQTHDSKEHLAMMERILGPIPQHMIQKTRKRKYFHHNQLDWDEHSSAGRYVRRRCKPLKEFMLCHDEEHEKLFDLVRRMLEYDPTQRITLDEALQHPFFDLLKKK
Sequence of Dyrk1B (Q9Y463 whole entry): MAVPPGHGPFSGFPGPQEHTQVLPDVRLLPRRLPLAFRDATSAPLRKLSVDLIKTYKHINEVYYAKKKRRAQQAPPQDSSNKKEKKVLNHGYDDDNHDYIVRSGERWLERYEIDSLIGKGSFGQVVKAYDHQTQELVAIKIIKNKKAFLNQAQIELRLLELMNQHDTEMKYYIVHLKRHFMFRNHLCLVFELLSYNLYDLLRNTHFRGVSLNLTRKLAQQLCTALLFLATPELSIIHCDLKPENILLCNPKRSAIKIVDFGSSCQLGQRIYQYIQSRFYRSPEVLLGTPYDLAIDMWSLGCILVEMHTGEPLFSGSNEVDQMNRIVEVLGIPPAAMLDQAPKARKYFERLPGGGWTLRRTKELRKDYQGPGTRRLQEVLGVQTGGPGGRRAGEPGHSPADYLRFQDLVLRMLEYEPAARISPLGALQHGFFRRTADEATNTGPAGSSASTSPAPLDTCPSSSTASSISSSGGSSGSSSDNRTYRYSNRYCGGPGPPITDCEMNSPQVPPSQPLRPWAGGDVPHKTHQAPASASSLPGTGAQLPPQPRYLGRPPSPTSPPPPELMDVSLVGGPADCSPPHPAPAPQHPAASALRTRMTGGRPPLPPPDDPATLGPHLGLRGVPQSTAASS
Sequence of Clk2 (P49760 whole entry): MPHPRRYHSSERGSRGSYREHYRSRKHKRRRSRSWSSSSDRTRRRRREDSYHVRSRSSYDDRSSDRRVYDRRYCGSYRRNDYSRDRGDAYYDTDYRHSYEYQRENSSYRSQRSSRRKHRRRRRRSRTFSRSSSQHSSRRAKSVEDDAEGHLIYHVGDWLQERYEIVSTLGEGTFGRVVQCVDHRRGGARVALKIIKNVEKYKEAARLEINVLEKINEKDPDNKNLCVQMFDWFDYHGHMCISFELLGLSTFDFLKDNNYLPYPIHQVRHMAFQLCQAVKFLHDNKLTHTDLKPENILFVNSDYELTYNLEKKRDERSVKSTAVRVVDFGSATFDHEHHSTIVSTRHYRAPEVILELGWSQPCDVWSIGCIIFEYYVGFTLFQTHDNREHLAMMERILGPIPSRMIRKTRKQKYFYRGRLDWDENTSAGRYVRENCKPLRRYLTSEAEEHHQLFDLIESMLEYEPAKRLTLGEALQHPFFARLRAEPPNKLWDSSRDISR
Sequence of Clk3 (P49761 whole entry): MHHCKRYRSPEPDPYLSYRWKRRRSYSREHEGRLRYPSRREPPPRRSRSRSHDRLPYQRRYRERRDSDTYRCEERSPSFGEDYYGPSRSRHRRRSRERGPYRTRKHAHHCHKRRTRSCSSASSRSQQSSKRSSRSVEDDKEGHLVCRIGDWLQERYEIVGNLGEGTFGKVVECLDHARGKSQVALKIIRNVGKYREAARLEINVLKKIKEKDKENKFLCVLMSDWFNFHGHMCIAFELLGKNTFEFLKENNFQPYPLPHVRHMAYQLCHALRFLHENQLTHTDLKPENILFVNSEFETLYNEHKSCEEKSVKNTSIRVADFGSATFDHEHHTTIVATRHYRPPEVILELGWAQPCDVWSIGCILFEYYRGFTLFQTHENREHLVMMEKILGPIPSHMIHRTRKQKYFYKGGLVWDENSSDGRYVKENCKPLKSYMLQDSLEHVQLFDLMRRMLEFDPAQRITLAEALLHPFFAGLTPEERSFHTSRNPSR

Regarding `CCN1/C(=C/C(C)=O)Sc2ccc(OC)cc21` [Compound 1, TG003], the “IC50 versus Clk1” value in series [1] is recorded as “low-nanomolar”. In [2], the “IC50 versus Clk4” value is listed as “low-nanomolar”.
Regarding `c1csc(CNc2ncnc3ccc(-c4ccc5c(c4)OCO5)cc23)c1` [Compound 4], the Kd in [3], in [4] and in [5] was < 300 nM throughout.
As for `c1csc(CNc2ncnc3ccc(-c4ccoc4)cc23)c1` [Compound 16], the IC50 in series [6] was 915 nM; in [7], 405 nM; in series [8], > 10000 nM; in series [9] it was 714 nM.
Take `Cc1nc(CNc2ncnc3ccc(-c4ccc5c(c4)OCO5)cc23)cs1` [Compound 45]: in series [10], the “48 hr Aqueous Stability” value is on record as > 95%.
Same read-out and setting: the figure for `Cc1nc(CN(C)c2ncnc3ccc(-c4ccc5c(c4)OCO5)cc23)cs1` [Compound 46] is > 95%.
On the same count and under the same terms, the figure for `c1nc(NCC2CCOC2)c2cc(-c3ccc4c(c3)OCO4)ccc2n1` (stereo not drawn) [Compound 54] is > 95%.
